According to US7151104B2, “Pyrazolopyridines as cyclin dependent kinase inhibitors” (Schering Corporation, priority 2002, dated 2006):

Target: T1, Cyclin E/CDK2 (Homo sapiens, UniProt P24941)
T1 construct: The expressed protein was approximately 34 kDa in size; made in house; host or cells: SF9 insect cells (baculovirus co-infection)
Test: Cyclin E/CDK2 in vitro kinase assay (SPA, 33P-ATP, biotinylated Histone H1 peptide)
Assay type: biochemical
Conditions: recombinant cyclin E/CDK2 from SF9 cells; 8 point serial dilutions in duplicate; 1 hour at room temperature

SMILES: Clc1cnn2c(NCc3cncnc3)cc(-c3ccccc3)cc12
- IC50: 78 nM
